One data set addresses T1, 5-lipoxygenase (Rattus norvegicus, UniProt P12527).
T1 construct: host or cells: RBL-1 (rat basophilic leukemia)
T1 sequence (P12527 1-673): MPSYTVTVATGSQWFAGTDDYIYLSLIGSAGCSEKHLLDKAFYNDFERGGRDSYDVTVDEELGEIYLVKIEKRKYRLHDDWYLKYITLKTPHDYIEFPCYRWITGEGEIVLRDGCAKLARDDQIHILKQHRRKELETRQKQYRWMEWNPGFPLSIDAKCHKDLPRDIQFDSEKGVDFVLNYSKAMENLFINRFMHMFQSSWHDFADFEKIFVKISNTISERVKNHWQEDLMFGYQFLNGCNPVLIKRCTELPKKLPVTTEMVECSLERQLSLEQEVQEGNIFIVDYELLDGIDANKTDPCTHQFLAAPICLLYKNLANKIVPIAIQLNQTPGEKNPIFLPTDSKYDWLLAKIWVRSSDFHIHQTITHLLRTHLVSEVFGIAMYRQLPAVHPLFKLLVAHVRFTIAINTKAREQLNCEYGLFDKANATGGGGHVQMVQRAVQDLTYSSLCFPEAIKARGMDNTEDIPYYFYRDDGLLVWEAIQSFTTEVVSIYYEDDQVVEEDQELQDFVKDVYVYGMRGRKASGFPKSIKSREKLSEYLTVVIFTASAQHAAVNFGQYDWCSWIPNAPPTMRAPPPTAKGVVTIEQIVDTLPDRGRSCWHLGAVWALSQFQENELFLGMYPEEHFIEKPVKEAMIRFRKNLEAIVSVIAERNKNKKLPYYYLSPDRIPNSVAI
Description: ARBL RBL-1 whole cell 5-lipoxygenase assay (LTB4 by RIA). The following applies: RBL-1 intact cells, 5 μM A23187, LTB4. The format is cell-based. The protocol:
(§1) ARBL/ARBC Whole Cell 5-Lipoxygenase and Cyclooxygenase Assays
(§2) The rat basophilic leukemia cell line (RBL-1) was obtained from the American Type Culture Collection (Rockville, Md.).
(§3) Radioimmuno assay (RIA) kits of LTB4 and PGF2α were obtained from Amersham (Arlington Heights, Ill.) and Seragen (Boston, Mass.) respectively.
(§4) All tissue culture media were obtained from GIBCO (Grand Island, N.Y.).
(§5) RBL-1 cells were grown in culture (suspension) in Eagle's minimum essential medium supplemented with 12% fetal bovine serum and 1:100 antibiotic-antimycotic mixture at 37° C. in an incubator supplied with air-5% carbon dioxide. Cells were harvested by centrifugation. They were washed with cold phosphate buffered saline pH 7.4 (PBS; NaCl, 7.1 g; Na2 HPO4, 1.15 g; KH2 PO4, 0.2 g; and KCl, 0.2 g/L). […] Calcium ionophore A23187 (5 μM) was added and cells were incubated for seven minutes at 37° C. The reaction was stopped by chilling the tubes in ice for ten minutes. Cells were separated by centrifugation and the supernatant was stored at -20°. Aliquots (100 μl) were analyzed for LTB4 and PGF2α using radioimmuno assay kits as provided by the supplier.

The target of a further data set is T2, cyclooxygenase (Rattus norvegicus, UniProt Q63921).
T2 construct: host or cells: RBL-1 (rat basophilic leukemia)
T2 sequence (Q63921 27-602): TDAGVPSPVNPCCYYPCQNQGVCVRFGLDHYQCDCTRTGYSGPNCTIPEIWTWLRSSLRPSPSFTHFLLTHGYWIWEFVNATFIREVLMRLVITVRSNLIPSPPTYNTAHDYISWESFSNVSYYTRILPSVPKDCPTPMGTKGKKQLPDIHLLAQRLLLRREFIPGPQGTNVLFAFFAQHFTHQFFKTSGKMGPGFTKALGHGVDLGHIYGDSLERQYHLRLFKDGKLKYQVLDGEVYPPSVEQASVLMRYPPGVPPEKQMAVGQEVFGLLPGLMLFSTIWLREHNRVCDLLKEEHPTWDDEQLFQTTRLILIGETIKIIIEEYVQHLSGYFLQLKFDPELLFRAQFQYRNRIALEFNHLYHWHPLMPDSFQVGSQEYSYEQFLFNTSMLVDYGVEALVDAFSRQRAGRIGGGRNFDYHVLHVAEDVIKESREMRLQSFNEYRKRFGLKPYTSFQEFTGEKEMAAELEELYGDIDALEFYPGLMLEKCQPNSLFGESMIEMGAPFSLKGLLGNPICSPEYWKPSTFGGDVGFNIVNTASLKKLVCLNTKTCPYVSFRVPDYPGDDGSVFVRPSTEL
Description: ARBC RBL-1 whole cell cyclooxygenase assay (PGF2α by RIA). Type of data set: cell-based. The settings on record: RBL-1 intact cells, 5 μM A23187, PGF2α. The protocol: as §1, §2, §3, §4, §5

A short description of data set [1]: Ultraviolet absorbing properties compared with p-aminobenzoic acid. The format is physicochemical. Details: UV max: unit not given here. The following applies: for α: ultraviolet absorption. The protocol: The ultraviolet absorbing properties of the compounds of the present invention is generally shown by a comparison with p-aminobenzoic acid which is the active ingredient in most commercial sunscreens. Such properties are within the ultraviolet absorbing ranges of […] range critical to effectiveness. A representative compound of the invention is compared to p-aminobenzoic acid in the following Table.

Results on five compounds are retold here after US4924002A, “Novel process for the preparation of pyrazoles from isoxazoles” (Warner-Lambert Company, priority 1989, dated 1990).

A word on the IC50: it is the concentration that inhibits the measured activity by half. As to `Cc1cc(C=Cc2cc(Br)c(O)c(Br)c2)n[nH]1` [Example 58, 3-[β-(4'-Hydroxy-3',5'-dibromophenyl)ethenyl]-5-methylpyrazole], the IC50 came out at 5.7 µM at 5-lipoxygenase and 14.5 µM against cyclooxygenase.

In the case of `Cc1cc(C=Cc2cc(Br)c(O)c(Br)c2)no1` [Example 54B], the figures for the IC50 against 5-lipoxygenase and at cyclooxygenase were 3.3 µM and 4.2 µM, respectively.

In data set [1], `COc1cc(C=Cc2cc(C)[nH]n2)ccc1O` [Example 5, 3-[β-(4'-Hydroxy-3'-methoxyphenyl)ethenyl]-5-methyl-pyrazole] returned a UV max of 292 and a α of 111.1.

In the case of `COC(=O)C(=Cc1cc(C(C)(C)C)c(O)c(C(C)(C)C)c1)c1cc(C)no1` [Example 46, 5-[α-Carbomethoxy-β-(4'-hydroxy-3',5'-bis(1,1-dimethylethyl)phenyl)ethenyl]-3-methylisoxazole], the figures for the IC50 on 5-lipoxygenase and on cyclooxygenase were 10 µM and 2 µM, respectively.

For `Nc1ccc(C(=O)O)cc1` [p-aminobenzoic acid, reference compound], the α in data set [1] stood at 132.2.
